Several values for one entry are separate records, joined by “and”; a condition that tells them apart may be missing. Equal entries are not always repeated.

Data set [1] can be described thus: Hygroscopicity studies (vapor sorption isotherm). It is filed as physicochemical.
The nature of data set [2]: Solid state stability studies, 21 days. Format: physicochemical. Particulars: for Total impurities: HPLC area-%. Here is the method: The solid-state stability of crystalline E7974-form M1—unsolvated was evaluated for 21 days. […] In addition, a different peak appeared at only a 0.12% level for sample stored at 40° C. and exposed to 75% relative humidity.
The test system of data set [3] is several cell lines, including human lung carcinoma, human colon carcinoma and human melanoma. The note with it: several cell lines incl. human lung carcinoma; cited from earlier work.
Where [4] appears, read: 25° C., visible light (6.8 million lux-hours), 21 d.

In data set [1] (at 70% RH, 25° C., FIG. 2), `C/C(=C\[C@H](C(C)C)N(C)C(=O)[C@@H](NC(=O)[C@H]1CCCCN1C(C)C)C(C)(C)C)C(=O)O` [Crystalline E7974-form M1—unsolvated, (2E,4S)-4-[(N-{[(2R)-1-isopropylpiperidin-2-yl]carbonyl}-3-methyl-L-valyl)(methyl)amino]-2,5-dimethylhex-2-enoic acid] displayed an increase in weight of 1.9%. Besides, the deliquescence result in data set [1] (high relative humidity (% RH), FIG. 1) is on record as “deliquesces at high relative humidity”. Moreover, the water adsorption reversibility result in data set [1] (up to 70% RH) is “reversible up to 70% RH”. The hygroscopicity classification entry in data set [1] (up to 70% RH, criterion: hygroscopic = not less than 3.0% water increase at 75% RH for a week) is recorded as “non-hygroscopic”. Further, the hygroscopicity entry in data set [1] (vapor sorption isotherm, FIG. 1) is on record as “slightly hygroscopic”. The Total impurities in data set [2] (25° C., light shield, 21 d) was found to be 0.76%; in data set [2] (setting [4]), 0.87%; in data set [2] (40° C., 75% RH, 21 d), 0.89%; in data set [2] (60° C., light shield, 21 d), 0.78%; in data set [2] (Initial, sum of all impurities >0.05%), 0.72%; in data set [2] (−20° C., light shield, 21 d), 0.72%. Moreover, the Wt/Wt in data set [2] (25° C., light shield, 21 d, control: −20° C. light shielded sample) came to 100.3%; in data set [2] (setting [4]), 99.9%; in data set [2] (40° C., 75% RH, 21 d), 102.2%; in data set [2] (60° C., light shield, 21 d), 100.9%. Moreover, the “level of a different new impurity peak” value in data set [2] (40° C., 75% relative humidity, 21 days) is recorded as 0.12%. Also, the “level of new impurity peaks” value in data set [2] (21 days at 25° C. and visible light, two new peaks) is 0.05% and 0.09%. The “changes in the impurity profile” value in data set [2] (shielded from light, stored at 25 and 60° C., 21 days) is “No significant changes”.

For `CN[C@H](C(=O)N[C@H](C(=O)N(C)[C@H](/C=C(\C)C(=O)O)C(C)C)C(C)(C)C)C(C)(C)c1cn(C)c2ccccc12` [Hemiasterlin], the antitumor activity entry in data set [3] is given as “exhibits antitumor activity”.

These data come from US20060281690A1, “Crystalline (2E,4S)-4-[(N-{[(2R)-1-isopropylpiperidin-2-yI]-carbonyl}-3-methyl-L-valyl)(methyl)amino]-2,5-dimethylhex-2-enoic acid and its pharmaceutical uses” (Eisai Co. Ltd., priority 2005, published 2006).
